Columns and labels:
K. pneumoniae = test: Test D: antibiotic sensitivity in contaminated urine, tetrazolium violet colour change; format: cell-based; settings: urine with 10^5 cfu/mL K. pneumoniae, 37° C. 10 hours; μg/ml: nitrofurantoin 64, pivmecillinam 4, trimethoprim 8, cephalexin 32, ciprofloxacin 0.25
Description: Each test tube contained 0.04 mg tetrazolium violet, 6.6 mg Wilkins Chalgren media. The test chambers also contained an amount of antibiotic compound as indicated in the tables below (as concentration in final volume of urine).
For each example, 0.2 mL of a urine sample was contaminated with 10^5 cfu/mL of the specified bacteria was poured into each test tube. The resultant composition was incubated at 37° C. for 10 hours. FIGS. 3A to 3F show the test tubes after the incubation period.

P. aeruginosa = test: Test A: antibiotic sensitivity in contaminated urine, tetrazolium violet colour change; format: cell-based; settings: urine with 10^5 cfu/mL P. aeruginosa, 37° C. 10 hours; μg/ml: nitrofurantoin 64, pivmecillinam 4, trimethoprim 1, cephalexin 16, ciprofloxacin 0.25

Compound	infection treatable or resistant (FIG. 4D) (K. pneumoniae)	infection treatable or resistant (FIG. 4A) (P. aeruginosa)
COc1cc(Cc2cnc(N)nc2N)cc(OC)c1OC [trimethoprim]	can be treated	–
O=C(O)c1cn(C2CC2)c2cc(N3CCNCC3)c(F)cc2c1=O [ciprofloxacin]	can be treated	can be treated

— patent US20210060550A1, “DEVICES AND METHODS FOR DETECTION OF MICROORGANISMS” (MICROBIOSENSOR LIMITED, priority 2017, published 2021)
